Measurements reported in PubChem BioAssay AID1963874 (Molecular Pharmacology Branch, DTP, NCI, 2024).
“And” between values parts separate entries of the source, which are not always exact repeats. Identical values can stand only once.

System: 253994-281-T-J1-PDC KRAS-mutant spheroids with HUVEC/MSC, viability
Test: Anticancer human tumor 253994-281-T-J1-PDC patient-derived colorectal carcinoma cell line growth inhibition [KRAS2]
Details: for viability, T/C: stronger effect = lower value
Method in brief: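 KRAS-mutant tumor cells were grown as spheroids with HUVEC endothelial cells and human MSCs as stroma. Targeted agents were tested alone and with KRAS pathway inhibitors. Doses started at or near clinical Cmax, or 10 microM, descending half-log.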

[1] = curve of first compound, second compound 0.1 µM
[2] = curve of first compound, second compound 0.316 µM
[3] = curve of first compound, second compound 1 µM
[4] = curve of first compound, second compound 3.16 µM
[5] = curve of first compound, second compound 10 µM
[6] = second compound 0.1 µM, first compound 0.0316 µM
[7] = second compound 0.1 µM, first compound 0.1 µM
[8] = second compound 0.1 µM, first compound 0.316 µM
[9] = second compound 0.1 µM, first compound 1 µM
[10] = second compound 0.1 µM, first compound 3.16 µM
[11] = second compound 0.1 µM, first compound 10 µM
[12] = second compound 0.316 µM, first compound 0.0316 µM
[13] = second compound 0.316 µM, first compound 0.1 µM
[14] = second compound 0.316 µM, first compound 0.316 µM
[15] = second compound 0.316 µM, first compound 1 µM
[16] = second compound 0.316 µM, first compound 3.16 µM
[17] = second compound 0.316 µM, first compound 10 µM
[18] = second compound 1 µM, first compound 0.0316 µM
[19] = second compound 1 µM, first compound 0.1 µM
[20] = second compound 1 µM, first compound 0.316 µM
[21] = second compound 1 µM, first compound 1 µM
[22] = second compound 1 µM, first compound 3.16 µM
[23] = second compound 1 µM, first compound 10 µM
[24] = second compound 3.16 µM, first compound 0.0316 µM
[25] = second compound 3.16 µM, first compound 0.1 µM
[26] = second compound 3.16 µM, first compound 0.316 µM
[27] = second compound 3.16 µM, first compound 1 µM
[28] = second compound 3.16 µM, first compound 3.16 µM
[29] = second compound 3.16 µM, first compound 10 µM
[30] = second compound 10 µM, first compound 0.0316 µM
[31] = second compound 10 µM, first compound 0.1 µM
[32] = second compound 10 µM, first compound 0.316 µM
[33] = second compound 10 µM, first compound 1 µM
[34] = second compound 10 µM, first compound 3.16 µM
[35] = second compound 10 µM, first compound 10 µM
[36] = second compound 0.1 µM, first compound 0.01 µM
[37] = second compound 0.316 µM, first compound 0.01 µM
[38] = second compound 1 µM, first compound 0.01 µM
[39] = second compound 3.16 µM, first compound 0.01 µM
[40] = second compound 10 µM, first compound 0.01 µM
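Note: spheroids exposed to agents for seven days before readout.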
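Throughout, for viability, T/C: percent of DMSO vehicle control viability.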

| SMILES | IC50 [1] [µM] | IC50 [2] [µM] | IC50 [3] [µM] | IC50 [4] [µM] | IC50 [5] [µM] | viability, T/C [6] [%] | viability, T/C [7] [%] | viability, T/C [8] [%] | viability, T/C [9] [%] | viability, T/C [12] [%] | viability, T/C [13] [%] | viability, T/C [14] [%] | viability, T/C [15] [%] | viability, T/C [18] [%] | viability, T/C [19] [%] | viability, T/C [20] [%] | viability, T/C [21] [%] | viability, T/C [24] [%] | viability, T/C [25] [%] | viability, T/C [26] [%] | further results |
| --- | --- | --- | --- | --- | --- | --- | --- | --- | --- | --- | --- | --- | --- | --- | --- | --- | --- | --- | --- | --- | --- |
| COc1cc2nccc(Oc3ccc(NC(=O)C4(C(=O)Nc5ccc(F)cc5)CC4)cc3)c2cc1OC + C=CC(=O)N1CCN(c2nc(=O)n(-c3c(C)ccnc3C(C)C)c3nc(-c4c(O)cccc4F)c(F)cc23)C(C)C1 | > 10 | > 10 | > 10 | > 10 | > 10 | 108 | 116 | 102 | 102 | 109 | 116 | 101 | 107 | 108 | 112 | 120 | 84.5 | 107 | 101 | 100 | viability, T/C [10]: 101%; viability, T/C [11]: 71.7%; viability, T/C [16]: 96.3%; viability, T/C [17]: 84.6%; viability, T/C [22]: 89.8%; viability, T/C [23]: 85.2%; viability, T/C [27]: 90.2%; viability, T/C [28]: 102%; viability, T/C [29]: 59.3%; viability, T/C [30]: 101%; viability, T/C [31]: 109%; viability, T/C [32]: 87.4%; viability, T/C [33]: 99.2%; viability, T/C [34]: 81.3%; viability, T/C [35]: 61.7% |
| CC1(C)CCC(CN2CCN(c3ccc(C(=O)NS(=O)(=O)c4ccc(NCC5CCOCC5)c([N+](=O)[O-])c4)c(Oc4cnc5[nH]ccc5c4)c3)CC2)=C(c2ccc(Cl)cc2)C1 + CNCc1ccccc1-c1csc(C(C)Nc2nc(C)nc3cc(OC)c(OC)cc23)c1 | > 10 | 6.41 | 4.57 | < 0.0316 | < 0.0316 | 99.5 | 105 | 101 | 99.5 | 86 | 94.3 | 86.2 | 80.9 | 82.7 | 83.7 | 84.2 | 78.1 | 33.9 | 29.8 | 38.1 | viability, T/C [10]: 82.6%; viability, T/C [11]: 69.9%; viability, T/C [16]: 81.4%; viability, T/C [17]: 30.8%; viability, T/C [22]: 64.6%; viability, T/C [23]: 19.4%; viability, T/C [27]: 32.9%; viability, T/C [28]: 13.1%; viability, T/C [29]: 6.34%; viability, T/C [30]: 0.15%; viability, T/C [31]: 0.15%; viability, T/C [32]: 0.13%; viability, T/C [33]: 0.11%; viability, T/C [34]: 0.11%; viability, T/C [35]: 0.17% |
| CCN1CCN(Cc2ccc(Nc3ncc(F)c(-c4cc(F)c5nc(C)n(C(C)C)c5c4)n3)nc2)CC1 + C=CC(=O)N1CCN(c2nc(=O)n(-c3c(C)ccnc3C(C)C)c3nc(-c4c(O)cccc4F)c(F)cc23)C(C)C1 | > 1 | > 1 | > 1 | 0.851 | 0.706 | 84.2 | 79.2 | 73.9 | 52.5 | 87.1 | 94.8 | 74.9 | 50.4 | 89.5 | 81.4 | 76.7 | 50.6 | 88.1 | 90.8 | 79.5 | viability, T/C (second compound 0.1 µM, first compound 0.00316 µM): 89.8%; viability, T/C [36]: 92.3%; viability, T/C (second compound 0.316 µM, first compound 0.00316 µM): 86.8%; viability, T/C [37]: 99.2%; viability, T/C (second compound 1 µM, first compound 0.00316 µM): 95.8%; viability, T/C [38]: 94.2%; viability, T/C (second compound 3.16 µM, first compound 0.00316 µM): 103%; viability, T/C [39]: 101%; viability, T/C [27]: 44.6%; viability, T/C (second compound 10 µM, first compound 0.00316 µM): 95.1%; viability, T/C [40]: 107%; viability, T/C [30]: 93.2%; viability, T/C [31]: 97.6%; viability, T/C [32]: 79.3%; viability, T/C [33]: 37% |
| CC1OCC2(CCN(c3cnc(Sc4ccnc(N)c4Cl)c(N)n3)CC2)C1N (configuration not stated) |  |  |  |  |  |  |  |  |  |  |  |  |  |  |  |  |  |  |  |  | viability, T/C (compound 0.0316 µM): 90.6% and 111% and 96.5%; IC50 (curve of compound): > 10 µM |
| CC(=O)OC12COC1CC(O)C1(C)C(=O)C(O)C3=C(C)C(OC(=O)C(O)C(NC(=O)OC(C)(C)C)c4ccccc4)CC(O)(C(OC(=O)c4ccccc4)C21)C3(C)C (configuration not stated) + CC1OCC2(CCN(c3cnc(Sc4ccnc(N)c4Cl)c(N)n3)CC2)C1N | 0.0204 | < 0.01 | 0.0271 | < 0.01 | < 0.01 | 39.5 | 26.3 | 23.2 | 27.5 | 29.2 | 18.4 | 19.2 | 20.3 | 42 | 31.2 | 24 | 21 | 18 | 11.9 | 11.7 | viability, T/C [36]: 68.7%; viability, T/C [10]: 21.8%; viability, T/C [37]: 48.8%; viability, T/C [16]: 18.1%; viability, T/C [38]: 92%; viability, T/C [22]: 21.7%; viability, T/C [39]: 19.8%; viability, T/C [27]: 14.8%; viability, T/C [28]: 12.5%; viability, T/C [40]: 20%; viability, T/C [30]: 14.4%; viability, T/C [31]: 13.3%; viability, T/C [32]: 12.8%; viability, T/C [33]: 10.5%; viability, T/C [34]: 11.8% |
| O=C(c1cc(Cc2n[nH]c(=O)c3ccccc23)ccc1F)N1CCN(C(=O)C2CC2)CC1 + CNCc1ccccc1-c1csc(C(C)Nc2nc(C)nc3cc(OC)c(OC)cc23)c1 | > 10 | > 10 | > 10 | < 0.0316 | < 0.0316 | 101 | 85.3 | 99.8 | 94.3 | 103 | 98.5 | 90.5 | 92.7 | 96.4 | 119 | 93.8 | 82.9 | 19.2 | 45 | 12.3 | viability, T/C [10]: 95.2%; viability, T/C [11]: 96.2%; viability, T/C [16]: 99.5%; viability, T/C [17]: 97.5%; viability, T/C [22]: 75.7%; viability, T/C [23]: 78.2%; viability, T/C [27]: 35.3%; viability, T/C [28]: 16.5%; viability, T/C [29]: 11%; viability, T/C [30]: 0.17%; viability, T/C [31]: 0.16%; viability, T/C [32]: 0.17%; viability, T/C [33]: 0.19%; viability, T/C [34]: 0.17%; viability, T/C [35]: 0.24% |
| CC1(C)CCC(CN2CCN(c3ccc(C(=O)NS(=O)(=O)c4ccc(NCC5CCOCC5)c([N+](=O)[O-])c4)c(Oc4cnc5[nH]ccc5c4)c3)CC2)=C(c2ccc(Cl)cc2)C1 + COc1cc2nc(C)nc(NC(C)c3cc(N)cc(C(F)(F)F)c3)c2cc1OC1CCOC1 | > 10 | > 10 | 8.29 | 5.51 | 2.59 | 89 | 85.8 | 85.6 | 89.1 | 84.1 | 80 | 79.8 | 83.5 | 76.8 | 85.9 | 82.5 | 78 | 91.6 | 85.2 | 81.7 | viability, T/C [10]: 67.2%; viability, T/C [11]: 64.1%; viability, T/C [16]: 75.2%; viability, T/C [17]: 53.3%; viability, T/C [22]: 64.7%; viability, T/C [23]: 47.1%; viability, T/C [27]: 82.2%; viability, T/C [28]: 55.2%; viability, T/C [29]: 44.3%; viability, T/C [30]: 71.1%; viability, T/C [31]: 72%; viability, T/C [32]: 74.4%; viability, T/C [33]: 61.6%; viability, T/C [34]: 47.8%; viability, T/C [35]: 24.4% |
